Experiments:
[1] = target: T1, system Xc^− (Homo sapiens, UniProt Q9UPY5); test: Cystine-induced glutamate release assay; format: cell-based; set-up: endogenous in cells; host or cells: H4 cells; conditions: H4 cells, sodium-free HEPES buffer, 50 μM L-Cystine, 2 hours, Amplex Red glutamate readout; read-out: pIC50 Cystine-induced glutamate release assay (converted)
T1 sequence (Q9UPY5 1-501): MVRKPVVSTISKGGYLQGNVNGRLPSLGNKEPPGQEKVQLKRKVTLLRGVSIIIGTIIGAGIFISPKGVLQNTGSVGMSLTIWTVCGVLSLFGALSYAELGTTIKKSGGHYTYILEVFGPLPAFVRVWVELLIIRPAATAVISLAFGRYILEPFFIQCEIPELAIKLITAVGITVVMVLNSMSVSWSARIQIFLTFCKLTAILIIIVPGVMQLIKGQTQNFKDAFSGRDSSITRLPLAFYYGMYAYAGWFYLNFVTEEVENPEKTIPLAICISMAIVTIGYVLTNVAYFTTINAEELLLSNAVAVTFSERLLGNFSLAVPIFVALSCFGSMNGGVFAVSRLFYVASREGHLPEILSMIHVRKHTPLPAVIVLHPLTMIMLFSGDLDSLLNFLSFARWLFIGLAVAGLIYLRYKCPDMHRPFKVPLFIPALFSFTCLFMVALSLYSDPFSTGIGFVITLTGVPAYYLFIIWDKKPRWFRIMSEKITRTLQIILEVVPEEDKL
T1 sequence (P08195 1-529 partner): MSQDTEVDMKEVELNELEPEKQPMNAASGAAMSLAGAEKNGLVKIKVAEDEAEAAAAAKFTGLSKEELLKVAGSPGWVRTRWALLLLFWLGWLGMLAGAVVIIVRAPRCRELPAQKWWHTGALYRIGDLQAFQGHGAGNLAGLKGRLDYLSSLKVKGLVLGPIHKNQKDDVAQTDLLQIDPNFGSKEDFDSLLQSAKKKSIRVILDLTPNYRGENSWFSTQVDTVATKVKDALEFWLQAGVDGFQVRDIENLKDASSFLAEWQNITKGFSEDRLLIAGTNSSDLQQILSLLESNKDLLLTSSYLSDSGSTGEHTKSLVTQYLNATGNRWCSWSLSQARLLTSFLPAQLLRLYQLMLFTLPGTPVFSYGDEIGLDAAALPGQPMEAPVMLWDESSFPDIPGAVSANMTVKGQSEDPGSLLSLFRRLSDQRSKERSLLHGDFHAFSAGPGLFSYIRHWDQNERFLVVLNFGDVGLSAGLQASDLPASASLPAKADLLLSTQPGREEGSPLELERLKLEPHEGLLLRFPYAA
In short: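 IC50 (reported as pIC50) normalized to DMSO 1% and Erastin 50 μM controls, from Amplex Red fluorescence of glutamate exported into supernatant. H4 cells were washed into sodium-free buffer to exclude EAAT transport, then given compound with 50 μM L-cystine for 2 h in the incubator.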

[2] = target: T1, system Xc^−; test: [^14C]L-Cystine uptake assay; format: cell-based; set-up: endogenous in cells; host or cells: H4 cells; conditions: H4 cells, sodium-free HEPES buffer, 0.5 μM L-[14C]Cystine and 4.5 μM L-Cystine, 1 hour at 37° C.; read-out: pIC50 [^14C] L-Cystine uptake assay (converted)
In short: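 Compound effect is given as pIC50, taken between controls of 1% DMSO and 50 μM Erastin. Human H4 cells were pretreated 15 min with compound in sodium-free buffer, then took up 0.5 μM [14C]cystine with 4.5 μM cold cystine for 1 hour at 37° C, read by scintillation proximity counting.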

Structure (SMILES) | IC50 [1] [nM] | IC50 [2] [nM]
Cc1cc2c(c(F)n1)-c1cnccc1C(C)C(=O)N2CC(=O)Nc1ccc(C(F)F)cc1 (single isomer, unassigned) [#259, N-[4-(difluoromethyl)phenyl]-2-[3-fluoro-5,10-dimethyl-9-oxo-4,8,14-triazatricyclo[9.4.0.0^2,7]pentadeca-1(15),2,4,6,11,13-hexaen-8-yl]acetamide] | < 15.8 | < 15.8
Cc1cc2c(c(F)n1)-c1cc(F)cnc1[C@H](C)C(=O)N2CC(=O)Nc1ccc(Cl)c(F)c1 (single isomer, unassigned) [#260] | < 15.8 | < 15.8
Cc1cc2c(c(F)n1)-c1cc(F)cnc1C(C)C(=O)N2CC(=O)Nc1ccc(C(F)F)cc1 (single isomer, unassigned) [#261, N-[4-(difluoromethyl)phenyl]-2-[3,14-difluoro-5,10-dimethyl-9-oxo-4,8,12-triazatricyclo[9.4.0.0^2,7]pentadeca-1(11),2(7),3,5,12,14-hexaen-8-yl]acetamide] | < 15.8 | < 15.8
Cc1cc2c(c(F)n1)-c1cc(F)cnc1C(C)C(=O)N2CC(=O)Nc1ccc(C(F)(F)F)nc1 (single isomer, unassigned) [#262, 2-[3,14-difluoro-5,10-dimethyl-9-oxo-4,8,12-triazatricyclo[9.4.0.0^2,7]pentadeca-1(11),2(7),3,5,12,14-hexaen-8-yl]-N-[6-(trifluoromethyl)-3-pyridyl]acetamide] | 15.8 to 39.8 | 15.8 to 39.8
Cc1cc2c(c(F)n1)-c1cc(F)cnc1C(C)C(=O)N2CC(=O)Nc1ccc(C(C)(F)F)cc1 (single isomer, unassigned) [#263, 2-[3,14-difluoro-5,10-dimethyl-9-oxo-4,8,12-triazatricyclo[9.4.0.0^2,7]pentadeca-1(15),2,4,6,11,13-hexaen-8-yl]-N-[4-(1,1-difluoroethyl)phenyl]acetamide] | < 15.8 | < 15.8
CC1C(=O)N(CC(=O)Nc2ccc(Cl)c(F)c2)c2cc(N(C)CCN(C)C)nc(F)c2-c2cccnc21 (single isomer, unassigned) [#266, N-(4-chloro-3-fluoro-phenyl)-2-[5-[2-(dimethylamino)ethyl-methyl-amino]-3-fluoro-10-methyl-9-oxo-4,8,12-triazatricyclo[9.4.0.0^2,7]pentadeca-1(15),2,4,6,11,13-hexaen-8-yl]acetamide] | 15.8 to 39.8 | 15.8 to 39.8
CC1C(=O)N(CC(=O)Nc2ccc(Cl)c(F)c2)c2cc(N3CC4(CC4)C3)nc(F)c2-c2cccnc21 (single isomer, unassigned) [#267, 2-[5-(5-azaspiro[2.3]hexan-5-yl)-3-fluoro-10-methyl-9-oxo-4,8,12-triazatricyclo[9.4.0.0^2,7]pentadeca-1(15),2,4,6,11,13-hexaen-8-yl]-N-(4-chloro-3-fluoro-phenyl)acetamide] | 15.8 to 39.8 | 39.8 to 100
CC1C(=O)N(CC(=O)Nc2ccc(Cl)c(F)c2)c2cc(N3CC(F)(F)C3)nc(F)c2-c2cccnc21 (single isomer, unassigned) [#268, N-(4-chloro-3-fluoro-phenyl)-2-[5-(3,3-difluoroazetidin-1-yl)-3-fluoro-10-methyl-9-oxo-4,8,12-triazatricyclo[9.4.0.0^2,7]pentadeca-1(15),2,4,6,11,13-hexaen-8-yl]acetamide] | < 15.8 | < 15.8
CC1C(=O)N(CC(=O)Nc2ccc(Cl)c(F)c2)c2cc(N3[C@@H]4CCC[C@H]3C4)nc(F)c2-c2cccnc21 (single isomer, unassigned) [#269, 2-[5-(6-azabicyclo[3.1.1]heptan-6-yl)-3-fluoro-10-methyl-9-oxo-4,8,12-triazatricyclo[9.4.0.0^2,7]pentadeca-1(11),2(7),3,5,12,14-hexaen-8-yl]-N-(4-chloro-3-fluoro-phenyl)acetamide] | 39.8 to 100 | 39.8 to 100
CC1C(=O)N(CC(=O)Nc2ccc(Cl)c(F)c2)c2cc(N3CC4(C3)CC4(F)F)nc(F)c2-c2cccnc21 (single isomer, unassigned) [#270, N-(4-chloro-3-fluoro-phenyl)-2-[5-(2,2-difluoro-5-azaspiro[2.3]hexan-5-yl)-3-fluoro-10-methyl-9-oxo-4,8,12-triazatricyclo[9.4.0.0^2,7]pentadeca-1(15),2,4,6,11,13-hexaen-8-yl]acetamide] | 39.8 to 100 | 39.8 to 100
CC1C(=O)N(CC(=O)Nc2ccc(C(F)F)cc2)c2cc(N3CC(F)C3)nc(F)c2-c2cccnc21 (single isomer, unassigned) [#274, N-[4-(difluoromethyl)phenyl]-2-[3-fluoro-5-(3-fluoroazetidin-1-yl)-10-methyl-9-oxo-4,8,12-triazatricyclo[9.4.0.0^2,7]pentadeca-1(15),2,4,6,11,13-hexaen-8-yl]acetamide] | < 15.8 | < 15.8
CC1C(=O)N(CC(=O)Nc2ccc(C(F)F)cc2)c2cc(N3CC(C)(O)C3)nc(F)c2-c2cccnc21 (single isomer, unassigned) [#275, N-[4-(difluoromethyl)phenyl]-2-[3-fluoro-5-(3-hydroxy-3-methyl-azetidin-1-yl)-10-methyl-9-oxo-4,8,12-triazatricyclo[9.4.0.0^2,7]pentadeca-1(15),2,4,6,11,13-hexaen-8-yl]acetamide] | < 15.8 | < 15.8
C[C@@H]1C(=O)N(CC(=O)Nc2ccc(C(F)F)cc2)c2cc(N3CC[C@@H](F)C3)nc(F)c2-c2cccnc21 (single isomer, unassigned) [#276, N-[4-(difluoromethyl)phenyl]-2-[3-fluoro-5-[3-fluoropyrrolidin-1-yl]-10-methyl-9-oxo-4,8,12-triazatricyclo[9.4.0.0^2,7]pentadeca-1(15),2,4,6,11,13-hexaen-8-yl]acetamide] | < 15.8 | < 15.8
C[C@@H]1C(=O)N(CC(=O)Nc2ccc(C(F)F)cc2)c2cc(N3CC[C@@H](F)C3)nc(F)c2-c2cccnc21 (single isomer, unassigned) [#277, N-[4-(difluoromethyl)phenyl]-2-[3-fluoro-5-[3-fluoropyrrolidin-1-yl]-10-methyl-9-oxo-4,8,12-triazatricyclo[9.4.0.0^2,7]pentadeca-1(15),2,4,6,11,13-hexaen-8-yl]acetamide] | 15.8 to 39.8 | 15.8 to 39.8
CC1C(=O)N(CC(=O)Nc2ccc(C(F)F)cc2)c2cc(N3CCC(F)(F)C3)nc(F)c2-c2cccnc21 (single isomer, unassigned) [#278, N-[4-(difluoromethyl)phenyl]-2-[5-(3,3-difluoropyrrolidin-1-yl)-3-fluoro-10-methyl-9-oxo-4,8,12-triazatricyclo[9.4.0.0^2,7]pentadeca-1(15),2,4,6,11,13-hexaen-8-yl]acetamide] | 39.8 to 100 | 15.8 to 39.8
C[C@H]1C(=O)N(CC(=O)Nc2ccc(C(F)F)cc2)c2cc(N3CC[C@H](O)C3)nc(F)c2-c2cccnc21 (single isomer, unassigned) [#279, N-[4-(difluoromethyl)phenyl]-2-[3-fluoro-5-[3-hydroxypyrrolidin-1-yl]-10-methyl-9-oxo-4,8,12-triazatricyclo[9.4.0.0^2,7]pentadeca-1(15),2,4,6,11,13-hexaen-8-yl]acetamide] | < 15.8 | < 15.8
CC1C(=O)N(CC(=O)Nc2ccc(C(F)F)cc2)c2cc(N3CC(F)(F)C3)nc(F)c2-c2cccnc21 (single isomer, unassigned) [#280, 2-[5-(3,3-difluoroazetidin-1-yl)-3-fluoro-10-methyl-9-oxo-4,8,12-triazatricyclo[9.4.0.0^2,7]pentadeca-1(11),2(7),3,5,12,14-hexaen-8-yl]-N-[4-(difluoromethyl)phenyl]acetamide] | < 15.8 | < 15.8

From patent publication US20260217708A1, “FUSED BENZAZEPINE DERIVATIVES FOR USE IN THE TREATMENT OF CANCER AND EPILEPSY” (UCB BIOPHARMA SRL, priority 2023, published 2026)
